Measured values taken from US9169217B2, “Arylalkyl esters of 4-amino-6-(substituted phenyl)-picolinates and 6-amino-2-(substituted phenyl)-pyrimidinecarboxylates and their use as selective herbicides for crops” (Dow AgroSciences LLC, priority 2011, dated 2015).
Like-named read-outs stand apart in the source and are kept apart here.

What was measured:
Assay in all cases: In-water applied herbicidal activity in transplanted paddy rice (Example 17)
Format in all cases: in vivo
[1] = system: Echinochloa crus-galli (L.) P.BEAUV. (barnyardgrass); conditions: for GR50 / GR80 / GR90: ECHCG, in-water applied, probit analysis; for GR50: 50% growth reduction; for GR80: 80% growth reduction; for GR90: 90% growth reduction; for pest or weed control at 17.5 g/ha / pest or weed control at 35 g/ha: Echinochloa crus-galli, 504 h, read-out: Visual Injury (%) ECHCG; for pest or weed control at 35 g/ha: 35 g ae/ha
Summary of the method: (§1)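 Ester forms of test compounds, in acetone diluted with aqueous Agri-dex (final 1.25% v/v crop oil concentrate), were injected into the flood water of paddy pots holding weeds or rice at the 2nd–3rd leaf stage in mud (pH ~7.3–7.8). Visual injury versus untreated plants was scored 0–100% after 3 weeks in greenhouse (~29/26 °C). GR50/GR80 were derived by probit analysis.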

[2] = system: Fimbristylis miliacea (L.) VAHL (globe fringerush); conditions: for GR50 / GR80 / GR90: FIMMI, in-water applied, probit analysis; for GR50: 50% growth reduction; for GR80: 80% growth reduction; for GR90: 90% growth reduction; for Visual Injury (%) FIMMI: rice cropping systems, in-water applied (paddy), 35 g ae/ha, 21 DAA, may represent multiple trials
Summary of the method: as §1

[3] = system: Scirpus juncoides ROXB. (Japanese bulrush); conditions: for GR50 / GR80 / GR90: SCPJU, in-water applied, probit analysis; for GR50: 50% growth reduction; for GR80: 80% growth reduction; for GR90: 90% growth reduction
Summary of the method: as §1

[4] = rice cropping systems, in-water applied (paddy), 21 DAA, may represent multiple trials
[5] = rice cropping systems, in-water applied (paddy), 17.5 g ae/ha, 21 DAA, may represent multiple trials

Question: COc1c(Cl)ccc(-c2nc(C(=O)OCc3ccccc3)c(Cl)c(N)c2F)c1F [Compound 1, benzyl 4-amino-3-chloro-6-(4-chloro-2-fluoro-3-methoxyphenyl)-5-fluoropicolinate] was tested. Which GR50 [1] did it give?
Answer: The GR50 was 10.9 g ae/ha.

Question: And the GR80 [1]?
Answer: Its GR80 is 21.8 g ae/ha.

Question: What about the GR90 [1] of the same compound?
Answer: Its GR90 is 31.2 g ae/ha.

Question: What about the pest or weed control at 17.5 g/ha [1] of the same compound?
Answer: The pest or weed control at 17.5 g/ha was 87%.

Question: And the GR50 [2]?
Answer: The GR50 was under 17.5 g ae/ha.

Question: What about the GR80 [2] of the same compound?
Answer: Its GR80 is under 17.5 g ae/ha.

Question: And the GR90 [2]?
Answer: The GR90 was under 17.5 g ae/ha.

Question: What about the GR50 [3] of the same compound?
Answer: The GR50 was under 8.75 g ae/ha.

Question: And the GR80 [3]?
Answer: The GR80 was 4.4 g ae/ha.

Question: And the GR90 [3]?
Answer: The GR90 was 10.8 g ae/ha.

Question: What about the pest or weed control at 17.5 g/ha ([3]; Schoenoplectiella juncoides, 504 h, read-out: Visual Injury (%) SCPJU) of the same compound?
Answer: Its pest or weed control at 17.5 g/ha is 99%.

Question: Which pest or weed control at 35 g/ha [1, 4] does the source give for COc1c(Cl)ccc(-c2cc(N)c(Cl)c(C(=O)OCc3ccccc3)n2)c1F [Compound 39] here?
Answer: The pest or weed control at 35 g/ha was 100%.

Question: And the “Visual Injury (%) FIMMI” value [2]?
Answer: Its value is 100%.

Question: With Nc1c(F)c(-c2ccc(C3CC3)cc2)nc(C(=O)OCc2ccccc2)c1Cl [Compound 42, benzyl 4-amino-3-chloro-6-(4-cyclopropylphenyl)-5-fluoropicolinate] as the compound, how does the pest or weed control at 17.5 g/ha [1, 5] read?
Answer: The pest or weed control at 17.5 g/ha was 70%.

Question: For COC(=O)c1nc(-c2ccc(C3CC3)cc2)c(F)c(N)c1Cl [Compound B, methyl 4-amino-3-chloro-6-(4-cyclopropylphenyl)-5-fluoropicolinate], which pest or weed control at 17.5 g/ha [1, 5] is on record?
Answer: Its pest or weed control at 17.5 g/ha is 10%.

Question: Which pest or weed control at 35 g/ha [1, 4] does the source give for COC(=O)c1nc(-c2ccc(Cl)c(OC)c2F)nc(N)c1OC [Compound F, methyl 6-amino-2-(4-chloro-2-fluoro-3-methoxyphenyl)-5-methoxypyrimidine-4-carboxylate, reference compound] here?
Answer: Its pest or weed control at 35 g/ha is 0%.

Question: And the pest or weed control at 35 g/ha ([3]; Schoenoplectiella juncoides, 504 h, rice cropping systems, in-water applied (paddy), 35 g ae/ha, 21 DAA, may represent multiple trials, read-out: Visual Injury (%) SCPJU)?
Answer: The pest or weed control at 35 g/ha was 50%.

Question: Which pest or weed control at 35 g/ha [1, 4] does the source give for COC(=O)c1nc(-c2ccc(Cl)c(OC)c2F)cc(N)c1Cl [Compound G, methyl 4-amino-3-chloro-6-(4-chloro-2-fluoro-3-methoxyphenyl)picolinate, reference compound] here?
Answer: Its pest or weed control at 35 g/ha is 74%.

Question: And the “Visual Injury (%) FIMMI” value [2]?
Answer: The value was 61%.

Question: How did the GR50 [1] turn out when COC(=O)c1nc(-c2ccc(Cl)c(OC)c2F)c(F)c(N)c1Cl [E, methyl 4-amino-3-chloro-6-(4-chloro-2-fluoro-3-methoxyphenyl)-5-fluoropicolinate, reference compound] was run?
Answer: The GR50 was 33.2 g ae/ha.

Question: What about the GR80 [1] of the same compound?
Answer: The GR80 was 58.5 g ae/ha.

Question: And the GR90 [1]?
Answer: Its GR90 is 78.7 g ae/ha.

Question: And the pest or weed control at 17.5 g/ha [1, 5]?
Answer: The pest or weed control at 17.5 g/ha was 26%.

Question: What about the GR50 [2] of the same compound?
Answer: Its GR50 is 14.4 g ae/ha.

Question: And the GR80 [2]?
Answer: Its GR80 is 21.7 g ae/ha.

Question: What about the GR90 [2] of the same compound?
Answer: Its GR90 is 26.8 g ae/ha.

Question: And the GR50 [3]?
Answer: The GR50 was 9.6 g ae/ha.

Question: And the GR80 [3]?
Answer: Its GR80 is 20.0 g ae/ha.

Question: What about the GR90 [3] of the same compound?
Answer: The GR90 was 29.5 g ae/ha.

Question: What about the pest or weed control at 17.5 g/ha ([3]; Schoenoplectiella juncoides, 504 h, rice cropping systems, in-water applied (paddy), 17.5 g ae/ha, 21 DAA, may represent multiple trials, read-out: Visual Injury (%) SCPJU) of the same compound?
Answer: Its pest or weed control at 17.5 g/ha is 75%.
